The test system of test [1] is Rhodanobacter sp. FW104-10B01. The method, boiled down:
(§1)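 Cells were washed and added to 384-well plates at a final OD600 of 0.02 in 80 µL, with serial dilutions of inorganic ion salts or equimolar nitrilotriacetic acid complexes. Aerobic plates were shaken at 700 rpm at 30 °C, while anaerobic plates were not shaken, and OD600 was read at 24 h, or at 48 h for R2A strain comparisons. Readings were scaled between water controls and growth-blocking antibiotic controls, and wells with precipitate were excluded. The IC50 was obtained by fitting curves from at least two biological replicates with the drc R package.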

Test [2] relates to Pseudomonas fluorescens FW300-N2E2. The method, boiled down:
as §1

Where [3] appears, read: medium / electron acceptor: 10B01 R2A/aerobic.
The mark [4] stands for this setting: medium / electron acceptor: 10B01 R2A/nitrate.
Where [5] appears, read: medium / electron acceptor: N2E2 Glucose/aerobic.
Setting [6] is: medium / electron acceptor: N2E2 Glucose/aerobic 0.25xMinerals.
Where [7] appears, read: medium / electron acceptor: N2E2 Glucose/aerobic (2).
Setting [8] is: medium / electron acceptor: N2E2 KB/aerobic.
The mark [9] stands for this setting: medium / electron acceptor: N2E2 LB/aerobic.
Where [10] appears, read: medium / electron acceptor: N2E2 LB/aerobic (2).
The mark [11] stands for this setting: medium / electron acceptor: N2E2 LB/nitrate.
The mark [12] stands for this setting: medium / electron acceptor: N2E2 Lactate/aerobic.
The mark [13] stands for this setting: medium / electron acceptor: N2E2 R2A/aerobic.

The structures appear in SMILES notation. Where a name gives a salt, the structure may show the parent alone.

Turning to `[Ce+3].[Cl-].[Cl-].[Cl-]` [Cerium(III) chloride], the IC50 growth inhibition in test [1] (setting [3]), in test [1] (setting [4]), in test [2] (setting [5]), in test [2] (setting [6]), in test [2] (setting [7]) and in test [2] (setting [8]) was less than 244 µM in each case. For the same molecule, the IC50 growth inhibition in test [2] (setting [9]), in test [2] (setting [10]), in test [2] (setting [11]), in test [2] (setting [12]) and in test [2] (setting [13]) was less than 244 µM throughout.
As to `[K+].[OH-].[OH-].[OH-].[OH-].[OH-].[OH-].[Sb+3]` [potassium hexahydroxoantimonate], the IC50 growth inhibition was greater than 5000 µM in test [1] (setting [3]); greater than 5000 µM in test [1] (setting [4]); greater than 5000 µM in test [2] (setting [5]); 3960 µM in test [2] (setting [6]); 4820 µM in test [2] (setting [7]); 4980 µM in test [2] (setting [8]). The IC50 growth inhibition in test [2] (setting [9]) was greater than 5000 µM; in test [2] (setting [10]), 4820 µM; in test [2] (setting [11]), 3080 µM; in test [2] (setting [12]), greater than 5000 µM; in test [2] (setting [13]), greater than 5000 µM.
Consider `O.O.O.O.O.O.[Cl-].[Cl-].[Co+2]` [Cobalt chloride hexahydrate], for which the IC50 growth inhibition in test [1] (setting [3]) was 592 µM; in test [1] (setting [4]) it was 484 µM; in test [2] (setting [5]), less than 2.44 µM; in test [2] (setting [6]) it was less than 2.44 µM; in test [2] (setting [7]) it was less than 2.44 µM; in test [2] (setting [8]) it was 20.8 µM. Besides, the IC50 growth inhibition in test [2] (setting [9]) is 175 µM; in test [2] (setting [10]) it was 86.7 µM; in test [2] (setting [11]), greater than 5000 µM; in test [2] (setting [12]), 7.41 µM; in test [2] (setting [13]), 13.8 µM.
Turning to `O.[Cl-].[Li+]` [Lithium chloride hydrate], the IC50 growth inhibition in test [1] (setting [3]) is 15600 µM; in test [1] (setting [4]), 98700 µM; in test [2] (setting [5]), 349000 µM; in test [2] (setting [6]) it was greater than 500000 µM; in test [2] (setting [7]) it was 33900 µM; in test [2] (setting [8]), 325000 µM. Further, the IC50 growth inhibition in test [2] (setting [9]) worked out at 354000 µM; in test [2] (setting [10]), 354000 µM; in test [2] (setting [11]), 263000 µM; in test [2] (setting [12]), 321000 µM; in test [2] (setting [13]), 176000 µM.
Consider `NO` [Hydroxylamine hydrochloride], for which the IC50 growth inhibition was 31900 µM in test [1] (setting [3]); greater than 500000 µM in test [1] (setting [4]); less than 244 µM in test [2] (setting [5]); less than 244 µM in test [2] (setting [6]); less than 244 µM in test [2] (setting [7]); less than 244 µM in test [2] (setting [8]). Also, the IC50 growth inhibition in test [2] (setting [9]) is less than 244 µM; in test [2] (setting [10]), less than 244 µM; in test [2] (setting [11]), 694 µM; in test [2] (setting [12]), less than 244 µM; in test [2] (setting [13]), less than 244 µM.
As for `[Cl-].[Cs+]` [Cesium chloride], the IC50 growth inhibition is 452 µM in test [1] (setting [3]); 3790 µM in test [1] (setting [4]); less than 244 µM in test [2] (setting [5]); less than 244 µM in test [2] (setting [6]); less than 244 µM in test [2] (setting [7]); 791 µM in test [2] (setting [8]). Further, the IC50 growth inhibition is 5910 µM in test [2] (setting [9]); 2140 µM in test [2] (setting [10]); 16600 µM in test [2] (setting [11]); less than 244 µM in test [2] (setting [12]); 1200 µM in test [2] (setting [13]).
As to `[Cl-].[Cl-].[Zn+2]` [Zinc chloride], the IC50 growth inhibition in test [1] (setting [3]) was 1770 µM; in test [1] (setting [4]) it was 4500 µM; in test [2] (setting [5]), less than 2.44 µM; in test [2] (setting [6]), less than 2.44 µM; in test [2] (setting [7]), less than 2.44 µM; in test [2] (setting [8]), 2720 µM. In addition, the IC50 growth inhibition is 2620 µM in test [2] (setting [9]); 2550 µM in test [2] (setting [10]); 580 µM in test [2] (setting [11]); less than 2.44 µM in test [2] (setting [12]); 70.4 µM in test [2] (setting [13]).
Turning to `OCl` [Sodium hypochlorite], the IC50 growth inhibition is greater than 5000 µM in test [1] (setting [3]); greater than 5000 µM in test [1] (setting [4]); greater than 5000 µM in test [2] (setting [5]); greater than 5000 µM in test [2] (setting [6]); 2280 µM in test [2] (setting [7]); greater than 5000 µM in test [2] (setting [8]). Also, the IC50 growth inhibition in test [2] (setting [9]) is greater than 5000 µM; in test [2] (setting [10]) it was greater than 5000 µM; in test [2] (setting [11]), 534 µM; in test [2] (setting [12]), greater than 5000 µM; in test [2] (setting [13]), 3320 µM.

(Values after the supplement of paper PMC6461962.)
